From USRE30241E, “Esters of 3-(hydroxy or hydroxymethyl)-4-hydroxyphenyl aminomethyl ketones” (Sterling Drug Inc., priority 1970, dated 1980)
Like-named read-outs stand apart in the source and are kept apart here. Each block holds one molecule with its values, some of them ahead of it.

Legend:
[1] = test system: carbachol- or histamine-induced bronchoconstriction; test: Bronchodilator Test Method I, anesthetized dog, intravenous activity; format: in vivo; details: Canis lupus familiaris; for inhibition in vivo at 0.002 mg/kg: 2 mcg/kg i.v.; for inhibition in vivo at 0.032 mg/kg: 32 mcg/kg i.v.; for inhibition in vivo at 0.128 mg/kg: 128 mcg/kg i.v.
Method in brief: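 Pentobarbital-anesthetized (30 mg/kg i.v.), open-chest, artificially ventilated dogs were given i.v. carbachol (4-6 µg/kg) or histamine diphosphate (35-45 µg/kg). Test compound was given i.v. mixed with, after, or 1-10 min before the constrictor.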

[2] = Stability of test solutions; details: ethylenediaminetetraacetic acid added; distilled water or saline solutions
[3] = test system: carbachol- or histamine-induced bronchoconstriction; test: Bronchodilator Test Method I, anesthetized dog, intraduodenal activity; format: in vivo; details: Canis lupus familiaris, read-out: Bronchodilation; for inhibition in vivo at 0.035 mg/kg: 35 mcg/kg (salt) intraduodenal; for inhibition in vivo at 0.07 mg/kg: 70 mcg/kg (salt) intraduodenal; for inhibition in vivo at 0.28 mg/kg: 280 mcg/kg (salt) intraduodenal; for inhibition in vivo at 0.032 mg/kg: 32 mcg/kg (salt) intraduodenal; for inhibition in vivo at 0.128 mg/kg: 128 mcg/kg (salt) intraduodenal
Method in brief: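 Pentobarbital-anesthetized (30 mg/kg i.v.) open-chest dogs of 9-18 kg, artificially ventilated; airway pressure recorded via tracheal cannula transducer. Test solution injected intraduodenally; from 5 min, i.v. carbachol (4-6 μg/kg) or histamine diphosphate (35-45 μg/kg) challenges every 30-60 min gauged degree and duration of bronchodilation.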

heart rate = test: Cardiovascular studies: effect on the heart rate in the anesthetized dog; format: in vivo
Method in brief: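 Anesthetized dogs, mostly spontaneously breathing, some open-chest, given rapid intravenous injections. Heart rate by electrocardiograph with blood pressure recorded simultaneously, every 0.5-1 minute for 10 minutes then every 2-5 minutes until recovery; several doses or compounds sometimes tested alternately in one dog.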

diastolic blood pressure = test: Effect on diastolic blood pressure in the anesthetized dog; format: in vivo
Procedure: The effect of a rapid intravenous injection on the heart rate the heart rate was conducted in anesthetized dogs under normal respiration. A few open-chest dogs were also tested. Increase in heart rate was measured by using an electrocardiograph attached to the dog. Readings were taken every 0.5-1 minute for the first 10 minutes and every 2-5 minutes thereafter until recovery. In some cases, several doses and more than one compound were tested alternately in the same dog. The blood pressure effect was simultaneously recorded.

[4] = test system: guinea pig bronchioles constricted by carbachol; test: Bronchodilator Test Method II, in vitro perfused guinea pig lung; details: for ED50: carbachol (Doryl) 1:5 million
Procedure: In this method bronchodilator activity in vitro was determined by testing the effect of graded doses of the test compounds on guinea pig bronchioles constricted by carbachol, using the technique reported by Sollman and von Oettingen, Proc. Soc, Exp. Biol. Med., 25,692 (1928) as modified by Tainter, Pedden, and James, J. Pharm. Exp. Ther., 51, 371 (1934) and by Luduena, von Euler, Tullar, and Lands, Arch. intern. Pharmacol., III, 392 (1957).

[5] = 5 min, 5 min, read-out: Bronchodilatation
[6] = 5 min, 8 mcg/kg i.v., 5 min, read-out: Bronchodilatation
[7] = 0.5 h, 30 min, read-out: Bronchodilatation
[8] = 0.5 h, 8 mcg/kg i.v., 30 min, read-out: Bronchodilatation
[9] = 1 h, 8 mcg/kg i.v., 60 min, read-out: Bronchodilatation
[10] = 1 h, 60 min, read-out: Bronchodilatation
[11] = 2 h, 120 min, read-out: Bronchodilatation
[12] = 3 h, 180 min, read-out: Bronchodilatation
[13] = 4 h, 240 min, read-out: Bronchodilatation

need for stabilizing agent in solution [2]: required to stabilize them
SMILES: CCC(NC(C)C)C(O)c1ccc(O)c(O)c1 (stereo not drawn) [IV, 3,4-Dihydroxy-alpha-[1-(isopropylamino)-propyl]benzyl alcohol, reference compound]
inhibition in vivo at 0.002 mg/kg [1, 5]: 32%
inhibition in vivo at 0.004 mg/kg ([1]; 5 min, 4 mcg/kg i.v., 5 min, read-out: Bronchodilatation): 72%
inhibition in vivo at 0.008 mg/kg [1, 6]: 74%
inhibition in vivo at 0.002 mg/kg [1, 7]: 0%
inhibition in vivo at 0.004 mg/kg ([1]; 0.5 h, 4 mcg/kg i.v., 30 min, read-out: Bronchodilatation): 31%
inhibition in vivo at 0.008 mg/kg [1, 8]: 13%
inhibition in vivo at 0.004 mg/kg ([1]; 1 h, 4 mcg/kg i.v., 60 min, read-out: Bronchodilatation): 19%
inhibition in vivo at 0.008 mg/kg [1, 9]: 13%

SMILES: CNCC(O)c1ccc(O)c(O)c1 (stereo not drawn) [V, 3,4-Dihydroxy-alpha-(methylaminomethyl)benzyl alcohol, reference compound]
inhibition in vivo at 0.004 mg/kg ([1]; 1 min, read-out: Bronchodilatation, 4 mcg/kg i.v., 1-2 min): 0%
inhibition in vivo at 0.064 mg/kg ([1]; 1 min, read-out: Bronchodilatation, 64 mcg/kg i.v., 1-2 min): 29%
inhibition in vivo at 0.004 mg/kg ([1]; 10 min, read-out: Bronchodilatation, 4 mcg/kg i.v., 10 min): 0%
inhibition in vivo at 0.008 mg/kg ([1]; 10 min, read-out: Bronchodilatation, 8 mcg/kg i.v., 10 min): 0%
inhibition in vivo at 0.008 mg/kg ([1]; 0.5 h, read-out: Bronchodilatation, 8 mcg/kg i.v., 30 min): 0%
inhibition in vivo at 0.016 mg/kg ([1]; 0.5 h, read-out: Bronchodilatation, 16 mcg/kg i.v., 30 min): 5%
inhibition in vivo at 0.064 mg/kg ([1]; 0.5 h, read-out: Bronchodilatation, 64 mcg/kg i.v., 30 min): 0%
need for stabilizing agent in solution [2]: required to stabilize them

need for stabilizing agent in solution [2]: required to stabilize them
SMILES: CC(C)(C)NCC(O)c1ccc(O)c(O)c1 (stereo not drawn) [Ref. Cpd. I, 3,4-Dihydroxy-alpha-(tert-butylaminomethyl)benzyl alcohol, reference compound]
inhibition in vivo at 0.00017 mg/kg ([1]; 1 min, 0.17 mcg/kg i.v., 1-2 min, read-out: Bronchodilatation): 22%
inhibition in vivo at 0.00035 mg/kg ([1]; 1 min, 0.35 mcg/kg i.v., 1-2 min, read-out: Bronchodilatation): 57%
inhibition in vivo at 0.035 mg/kg ([3]; 10 min, 10 min): 34%
inhibition in vivo at 0.07 mg/kg ([3]; 10 min, 10 min): 40%
inhibition in vivo at 0.28 mg/kg ([3]; 10 min, 10 min): 66%
inhibition in vivo at 0.035 mg/kg ([3]; 0.5 h, 30 min): 41%
inhibition in vivo at 0.07 mg/kg ([3]; 0.5 h, 30 min): 60%
inhibition in vivo at 0.28 mg/kg ([3]; 0.5 h, 30 min): 59%
inhibition in vivo at 0.035 mg/kg ([3]; 1 h, 60 min): 44%
inhibition in vivo at 0.07 mg/kg ([3]; 1 h, 60 min): 35%
inhibition in vivo at 0.28 mg/kg ([3]; 1 h, 60 min): 46%
inhibition in vivo at 0.035 mg/kg ([3]; 2 h, 120 min): 27%
inhibition in vivo at 0.07 mg/kg ([3]; 2 h, 120 min): 30%
inhibition in vivo at 0.28 mg/kg ([3]; 2 h, 120 min): 54%
inhibition in vivo at 0.035 mg/kg ([3]; 3 h, 180 min): 3%
inhibition in vivo at 0.28 mg/kg ([3]; 3 h, 180 min): 30%
inhibition in vivo at 0.07 mg/kg ([3]; 4 h, 240 min): 0%
Mean Maximal Increase in the Heart Rate (heart rate; 0.17 mcg/kg (salt) i.v.): 20%
Mean Maximal Increase in the Heart Rate (heart rate; 0.35 mcg/kg (salt) i.v.): 32%
Mean Maximal Increase in the Heart Rate (heart rate; 0.7 mcg/kg (salt) i.v.): 44%
Mean Decrease in Diastolic Blood Pressure (diastolic blood pressure; 0.17 meg/kg (salt) i.v.): 13%
Mean Decrease in Diastolic Blood Pressure (diastolic blood pressure; 0.35 meg/kg (salt) i.v.): 33%
Mean Decrease in Diastolic Blood Pressure (diastolic blood pressure; 0.7 meg/kg (salt) i.v.): 41%
ED50 [4]: 0.18 µg (base)
Duration, Mean ([4]; dose 0.32 mcg (base)): 5 ± 1.4 min

SMILES: COc1ccc(C(=O)Oc2ccc(C(O)CNC(C)(C)C)cc2COC(C)=O)cc1 (stereo not drawn) [Example 151, 3-(acetoxymethyl)-4-(p-anisoyloxy)-alpha-(tert-butylaminomethyl)benzyl alcohol]
inhibition in vivo at 0.008 mg/kg [1, 6]: 43%
inhibition in vivo at 0.032 mg/kg [1, 5]: 54%
inhibition in vivo at 0.128 mg/kg [1, 5]: 85%
inhibition in vivo at 0.008 mg/kg [1, 8]: 33%
inhibition in vivo at 0.032 mg/kg [1, 7]: 46%
inhibition in vivo at 0.128 mg/kg [1, 7]: 81%
inhibition in vivo at 0.008 mg/kg [1, 9]: 50%
inhibition in vivo at 0.032 mg/kg [1, 10]: 41%
inhibition in vivo at 0.128 mg/kg [1, 10]: 81%
inhibition in vivo at 0.008 mg/kg ([1]; 2 h, 8 mcg/kg i.v., 120 min, read-out: Bronchodilatation): 43%
inhibition in vivo at 0.032 mg/kg [1, 11]: 54%
inhibition in vivo at 0.128 mg/kg [1, 11]: 73%
inhibition in vivo at 0.008 mg/kg ([1]; 3 h, 8 mcg/kg i.v., 180 min, read-out: Bronchodilatation): 30%
inhibition in vivo at 0.032 mg/kg [1, 12]: 21%
inhibition in vivo at 0.128 mg/kg [1, 12]: 69%
inhibition in vivo at 0.032 mg/kg [1, 13]: 18%
inhibition in vivo at 0.128 mg/kg [1, 13]: 64%
inhibition in vivo at 0.008 mg/kg ([1]; 4.5 h, 8 mcg/kg i.v., 270 min, read-out: Bronchodilatation): 20%
inhibition in vivo at 0.128 mg/kg ([1]; 4.5 h, 270 min, read-out: Bronchodilatation): 52%
inhibition in vivo at 0.032 mg/kg ([3]; 5 min, 5 min): 24%
inhibition in vivo at 0.128 mg/kg ([3]; 5 min, 5 min): 54%
inhibition in vivo at 0.032 mg/kg ([3]; 0.5 h, 30 min): 40%
inhibition in vivo at 0.128 mg/kg ([3]; 0.5 h, 30 min): 63%
inhibition in vivo at 0.032 mg/kg ([3]; 1 h, 60 min): 36%
inhibition in vivo at 0.128 mg/kg ([3]; 1 h, 60 min): 66%
inhibition in vivo at 0.032 mg/kg ([3]; 2 h, 120 min): 36%
inhibition in vivo at 0.128 mg/kg ([3]; 2 h, 120 min): 66%
inhibition in vivo at 0.032 mg/kg ([3]; 3 h, 180 min): 28%
inhibition in vivo at 0.128 mg/kg ([3]; 3 h, 180 min): 66%
inhibition in vivo at 0.032 mg/kg ([3]; 5 h, 300 min): 20%
inhibition in vivo at 0.128 mg/kg ([3]; 5 h, 300 min): 43%
Mean Maximal Increase in the Heart Rate (heart rate; 32 mcg/kg (salt) i.v.): 18 Beats/Minute
Mean Maximal Increase in the Heart Rate (heart rate; 128 mcg/kg (salt) i.v.): 24 Beats/Minute
Mean Decrease in Diastolic Blood Pressure (diastolic blood pressure; 32 meg/kg (salt) i.v.): 10%
Mean Decrease in Diastolic Blood Pressure (diastolic blood pressure; 128 meg/kg (salt) i.v.): 10%
ED50 [4]: 5.1 µg (base)
Duration, Mean ([4]; dose 10 mcg (base)): 67.3 ± 33.7 min
